Source: patent US8906925B2, “Pyrido[4,3-B]indoles containing rigid moieties” (Medivation Technologies, Inc., priority 2008, dated 2014)
Where two headings read alike, the source gives them in different places.

Tests used:
[1] = target: T1, rat adrenergic α1A receptor (Rattus norvegicus, UniProt P43140); assay: Adrenergic α1A radioligand binding ([3H]Prozosin); conditions: compound at 1 μM
T1 construct: from tissue; host or cells: Wistar rat submaxillary glands
T1 sequence (P43140 1-466): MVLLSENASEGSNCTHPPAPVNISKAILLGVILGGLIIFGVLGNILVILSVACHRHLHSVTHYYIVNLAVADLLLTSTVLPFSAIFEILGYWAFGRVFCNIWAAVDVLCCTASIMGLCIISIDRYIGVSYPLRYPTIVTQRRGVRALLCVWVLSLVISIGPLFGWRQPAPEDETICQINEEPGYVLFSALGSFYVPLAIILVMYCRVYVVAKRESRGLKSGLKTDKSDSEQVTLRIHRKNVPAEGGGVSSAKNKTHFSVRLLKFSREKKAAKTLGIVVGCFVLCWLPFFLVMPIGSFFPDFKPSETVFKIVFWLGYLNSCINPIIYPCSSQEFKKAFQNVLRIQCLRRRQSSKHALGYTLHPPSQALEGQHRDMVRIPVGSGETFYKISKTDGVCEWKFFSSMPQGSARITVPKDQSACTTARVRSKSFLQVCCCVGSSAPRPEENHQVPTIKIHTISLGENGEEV
Procedure: To evaluate in radioligand binding assays the activity of compounds of the invention, rat adrenergic α1A receptor obtained from Wistar Rat submaxillary glands (Michel, A. D. et al., Br. J. Pharmacol. 98:883, 1989) in a modified Tris-HCl buffer (50 mM Tris-HCl buffer, pH 7.4, 0.5 mM EDTA) was used. Compounds of the invention were incubated with 0.25 nM [^3H]Prozosin for 60 min. at 25° C. Non-specific binding was estimated in the presence of 10 μM phentolamine. Receptor proteins were filtered and washed, the filters were then counted to determine [^3H]Prozosin specifically bound. Compounds of the invention were screened at 1 μM or lower, using 1% DMSO as vehicle. Compounds of the invention were tested in this biochemical assay and percent inhibition of specific binding was determined.

male Wistar rat = assay: Conditioned avoidance response (CAR) model; format: in vivo; conditions: 0.1, 0.3, 1, 3, 10 and 20 mg/kg, p.o.
Procedure: All currently approved antipsychotic agents (typical and atypical) are known to have the ability to selectively suppress conditioned avoidance response (CAR) behavior in the rat. This evidence makes CAR one of the primary tests to assess antipsychotic activity of novel compounds.
The effects of Compound Nos. 83, 88 and 90, at concentrations including 0.1, 0.3, 1, 3, 10 and 20 mg/kg, p.o., in the conditioned avoidance response model were assessed in the male Wistar rat. Risperidone (0.3 mg/kg, s.c.) was used in the present study as a positive reference compound.
For each testing session, animals were first placed for a 4-min. habituation period in a shuttlebox with an electrified grid floor. Then, rats were submitted to 30 trials spaced by intertribal intervals varying at random between 20 and 30 sec. Each trial consisted of a 10-sec. light stimulus (conditioned stimulus, CS) followed by a 10-sec. electric foot shock (unconditioned stimulus, US) in presence of the light presented in the compartment where the rat is located. If the animal moved to the other compartment during the initial 10-sec. of the trial, the light was terminated (no shock was delivered) and the response was recorded as an avoidance response. If the rat changed compartment during the foot shock, the light and the shock were terminated and the response was recorded as an unconditioned response. […] If a response was made during an intertrial interval, the response was recorded as an intertrial crossing. Training was performed 5 days per week with one session of 30 trials per day, until rats reached the performance criterion of 80% of avoidance response on at least two consecutive daily sessions. […] A minimal wash-out period of 48 hours was allowed between 2 treatments. During the wash-out period, animals were trained until they recovered an avoidance performance of at least 80%.
Statistical analysis was performed using a Friedman two-way ANOVA by ranks followed by the Wilcoxon matched-pairs signed-ranks test to test each dose of the test compound administered versus vehicle control treated rats.

C57B1I6J mice = assay: Catalepsy in the mouse bar test (EPS model); format: in vivo; conditions: for effects on catalepsy, ANOVA: 0.03, 0.1, 0.3, 1, 3, 10, 30 oral, 30 min, 1 h, and 3 h, incl. haloperidol group
Source text: Antipsychotic drugs are known to induce extrapyramidal syndrome (EPS) in animals and in humans. An animal model considered to be predictive of EPS is the mouse bar test, which measures cataleptic responses to pharmacological agents.
Male C57B1I6J mice from Jackson Laboratories (Bar Harbor, Me.) were used. Mice were received at 6-weeks of age. Upon receipt, mice were assigned unique identification numbers (tail marked) and were group housed with 4 mice/cage in OptiMICE ventilated cages. All animals remained housed in groups of four during the remainder of the study. All mice were acclimated to the colony room for at least two weeks prior to testing and were subsequently tested at an average age of 8 weeks. During the period of acclimation, mice were examined on a regular basis, handled, and weighed to assure adequate health and suitability. Animals were maintained on a 12 h/12 h light/dark cycle. The room temperature was maintained between 20 and 23° C. with a relative humidity maintained between 30% and 70%. Chow and water were provided ad libitum for the duration of the study. In each test, animals were randomly assigned across treatment groups.
The following compounds were used for this study. 1) Compound No. 83, 88 or 90 (0.03, 0.1, 0.3, 1, 3, 10, 30) was dissolved in 3% Tween in PBS and administered orally at a dose volume of 10 mL/kg; 2) Haloperidol (2 mg/kg) was dissolved in 10% DMSO and administered i.p. at a dose volume of 10 mL/kg.
The front paws of a mouse were placed on a horizontal metal bar raised 2″ above a Plexiglas platform and time was recorded for up to 30 seconds per trial. The test ended when the animal's front paws returned to the platform or after 30 seconds. The test was repeated three times and the average of the three trials was reported as the intensity index of catalepsy. Antipsychotic agents such as haloperidol cause rigidity as a side effect. Animals treated with haloperidol will hold on to the bar without moving for several minutes. Mice were brought to the activity experimental room for at least 1 h acclimation to the experimental room conditions prior to testing. Following injection of either vehicle, Compound No. 83, 88 or 90, or haloperidol, catalepsy was assessed at 3 time points: 30 min, 1 h, and 3 h. At the end of each trial, the apparatus was thoroughly cleaned with 70% ethanol.
Data were analyzed by analysis of variance (ANOVA) followed by post-hoc comparisons with Fisher Tests when appropriate. An effect was considered significant if p<0.05.

[2] = percent inhibition of specific binding, read-out: Inhibition of ligand binding, Adrenergic α1A

SMILES	inhibition at 1 µM [1, 2] [%]	number of avoidance responses versus pretreatment, compared to vehicle (male Wistar rat)	effects on catalepsy, ANOVA (C57B1I6J mice)	sedation observed in bar test (C57B1I6J mice; 30 mg/kg, oral)	also measured
Cc1ccc(C(O)Cn2c3c(c4ccccc42)CN(C)CC3)cc1 (racemic) [Compound 53, racemic-2-(1,2,3,4-tetrahydro-2-methylpyrido[4,3-b]indol-5-yl)-1-p-tolylethanol]	74	–	–	–	–
CCN1CCc2c(c3ccccc3n2CC(O)c2ccc(C)cc2)C1 (racemic) [Compound 44, racemic-2-(2-ethyl-1,2,3,4-tetrahydropyrido[4,3-b]indol-5-yl)-1-p-tolylethanol]	39	–	–	–	–
C/C(=C\n1c2c(c3cc(Cl)ccc31)CN(C)CC2)c1ccncc1 [Compound 90, (E)-8-chloro-2,3,4,5-tetrahydro-2-methyl-5-(2-(pyridin-4-yl)prop-1-enyl)-1H-pyrido[4,3-b]indole]	–	significantly and dose-dependently decreased	significant treatment effect	caused high levels of sedation	latency to hold the bar (C57B1I6J mice; 10 mg/kg, oral): increase; sedation observed in bar test (C57B1I6J mice; 10 mg/kg, oral): also caused sedation, but at lower levels
C/C(=C\n1c2c(c3cc(C)ccc31)CN(C)CC2)c1ccncc1 [Compound 88, (E)-2,3,4,5-tetrahydro-2,8-dimethyl-5-(2-(pyridin-4-yl)prop-1-enyl)-1H-pyrido[4,3-b]indole]	–	significantly and dose-dependently decreased	significant treatment effect	caused sedation	other effects in bar test (C57B1I6J mice; doses other than 30 mg/kg, oral): No other effects
Cc1ccc2c(c1)c1c(n2CC#Cc2ccccn2)CCN(C)C1 [Compound No. 500, 2,3,4,5-tetrahydro-2,8-dimethyl-5-(3-(pyridin-2-yl)prop-2-ynyl)-1H-pyrido[4,3-b]indole]	–	–	–	–	inhibition at 1 µM ([1]; read-out: Inhibition of ligand binding, Adrenergic α1A (percent inhibition of specific binding)): 27%
C/C(=C\n1c2c(c3cc(Cl)ccc31)CN(C)CC2)c1ccc(F)cc1 [Compound 83, (E)-8-chloro-5-(2-(4-fluorophenyl)prop-1-enyl)-2,3,4,5-tetrahydro-2-methyl-1H-pyrido[4,3-b]indole]	90	significantly and dose-dependently decreased	significant treatment effect	caused sedation	sedation observed in bar test (C57B1I6J mice; 10 mg/kg, oral): also caused sedation, but at lower levels
Cc1ccc(C(O)Cn2c3c(c4cc(C)ccc42)CN(C)CC3)cc1 (racemic) [Compound 43, racemic-2-(1,2,3,4-tetrahydro-2,8-dimethylpyrido[4,3-b]indol-5-yl)-1-p-tolylethanol]	90	–	–	–	Inhibition of ligand binding, Adrenergic α1A ([1]; percent inhibition of specific binding, 1 µM): 96%
CCN1CCc2c(c3cc(C)ccc3n2CC(O)c2ccc(C)cc2)C1 (racemic) [Compound 51, racemic-2-(2-ethyl-1,2,3,4-tetrahydro-8-methylpyrido[4,3-b]indol-5-yl)-1-p-tolylethanol]	86	–	–	–	–
